Where two headings read alike, the source gives them in different places.
How the values were obtained:
CYP3A4 = CYP3A4 (Homo sapiens, UniProt P08684); assay: Supersome CYP3A4 kinetic incubations; format: in vitro ADME; design: purchased Corning (Amsterdam, The Netherlands); host or cells: baculovirus-transfected insect cells; details: for Scaled Vmax(app): CYP3A4 scaled to whole liver by Eq. 3; for Vmax (app) / Km: Supersome CYP3A4
Experimental: The final incubations were carried out in 50 mM Tris–HCl (pH 7.4) containing 5 mM MgCl2, 1 mM EDTA (as an A-esterase PON1 inhibitor) (Bizoń and Milnerowicz [2018]), 50 µM iso-OMPA (as a B-esterases inhibitor) (Lane et al. [2006]), Supersome™ isoform (at final concentration of 0.005 nmol CYP/ml for 1A2, 0.001 nmol CYP/ml for 2B6, 0.01 nmol CYP/ml for 2C19, and 0.01 nmol CYP/ml for 3A4) and CPF at different final concentrations (0.05, 0.1, 0.25, 0.5, 1, 5 and 10 µM for 1A2, 0.05, 0.1, 0.25, 0.5, 1, 5 10 and 25 µM for 2B6, 1, 2.5, 5, 10, 25 and 50 µM for 2C19, and 0.5, 1, 2.5, 5, 10, 25 and 50 µM for 3A4), which were added from 100 times concentrated stock solutions in ACN. After 1 min preincubation in a 37 °C water bath, 5 µl NADPH (final concentration 1 mM) was added to the incubation system. Control incubations were performed by replacing NADPH with the same amount of Tris–HCl (pH 7.4). The total volume of the incubation mixtures was 200 µl. The incubations lasted for 2 min at 37 °C and were terminated by addition of 50 µl ice cold ACN and subsquently put on ice. After that, samples were centrifuged at 16,000 g (4 ℃) for 5 min and supernatants of samples were separated into two equal portions for Ultra-Performance Liquid Chromatography-Photodiode Array (UPLC-PDA) and Liquid Chromatography Mass Spectrometry (LC–MS/MS) analysis, respectively.
To normalize for differences in intrinsic CYP activity between Supersome™ and pooled HLMs and enable scaling of the activities to the in vivo situation, CYP-specific ISEF values need to be established. […] The incubation method was similar as used for the CPF kinetic incubation assay described above, except that certain incubation conditions were replaced by the conditions listed in Table 1. The samples obtained were analyzed by UPLC-PDA for acetaminophen, 4-hydroxymephenytoin, and 6β-hydroxytestosterone formation catalyzed by 1A2, 2C19 and 3A4, or LC–MS/MS for (±)-hydroxybupropion formation catalyzed by 2B6.
As mentioned before, the in vitro apparent kinetic parameters (Vmax and Km) for pathway 1 and pathway 2 in the HLM-based approach, and pathway 3 in both approaches were all obtained directly from reported studies using pooled HLMs (Buratti et al. [2003]; Sams et al. [2004]; Zhao et al. [2019]). Therefore, no extra calculations were required to define these parameters. The kinetic parameters for the ISEF calculation, pathway 1 and 2 in the Supersome™-based approach, and pathway 4 in both approaches (25 individuals) were all obtained by fitting the experimental data to the Michaelis–Menten model using GraphPad (GraphPad Prism 5.0 software, San Diego, CA, USA). It should be noted that the kinetic parameters for pathway 4 used in the two approaches were calculated as mean of the kinetic parameters (Vmax and Km) obtained using 25 individual HP samples (with correction for total protein concentration of each plasma sample).
The in vivo Kmi values were assumed to be equal to the apparent Kmi(app) values (µM) obtained in the in vitro incubations, while the in vivo Vmaxi for each CYP isoform was derived from their corresponding apparent CYP isoform Vmaxi(app) (pmol/min/pmolCYP) using Eq. 3:3 Vmaxi=Vmaxiapp×CYPiabundance×ISEF×60×MPL×1000×VL/1,000,000,

CYP1A2 = molecular target: T1, CYP1A2 (Homo sapiens, UniProt P05177); details: bioactivation of CPF, ref Foxenberg et al. [2007]; cited from earlier work
T1 sequence (P05177 2-516 limits assumed): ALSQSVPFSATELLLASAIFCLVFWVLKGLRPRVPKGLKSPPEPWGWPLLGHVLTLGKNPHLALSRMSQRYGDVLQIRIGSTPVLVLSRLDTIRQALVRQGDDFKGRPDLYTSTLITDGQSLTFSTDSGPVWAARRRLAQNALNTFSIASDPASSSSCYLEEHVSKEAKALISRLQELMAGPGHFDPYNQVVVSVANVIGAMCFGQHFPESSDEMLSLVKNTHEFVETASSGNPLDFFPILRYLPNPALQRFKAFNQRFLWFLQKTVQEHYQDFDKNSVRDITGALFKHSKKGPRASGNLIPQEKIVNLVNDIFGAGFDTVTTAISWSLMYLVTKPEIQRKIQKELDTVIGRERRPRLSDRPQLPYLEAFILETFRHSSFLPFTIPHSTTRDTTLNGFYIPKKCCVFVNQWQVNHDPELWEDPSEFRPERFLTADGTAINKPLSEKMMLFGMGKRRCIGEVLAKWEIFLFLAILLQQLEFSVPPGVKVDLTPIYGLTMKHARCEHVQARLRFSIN

RBC AChE = assay: PBK model-based reverse dosimetry and BMD analysis of RBC AChE inhibition; design: species or system human
Experimental: In the present study, PBK model-based reverse dosimetry was applied to translate the in vitro rhAChE inhibition concentration–response curve into in vivo RBC AChE inhibition dose–response curves first for the average adult population.
The external dose values thus obtained together with corresponding inhibitory effects were used to construct RBC AChE inhibition dose–response curves for the average population.
A BMD analysis was performed to derive a POD from the predicted in vivo dose–response curves obtained for the average population. In the present study, the BMDL10 values were used as POD based on the fact that the United States Environmental Protection Agency (USEPA) also used a 10% effect level to define a health based guidance value (USEPA [2011], [2014]). BMD analysis was carried out using the Benchmark Dose Software version 3.1.2 (USEPA [2019]), with exponential or hill models because of their adequacy in predicting continuous data. The BMDL10 value with the lowest AIC was chosen and further evaluated by comparing the obtained values with reported BMDL10 by USEPA ([2011], [2014]).

CYP3A4, sequence (P08684 2-503 limits assumed): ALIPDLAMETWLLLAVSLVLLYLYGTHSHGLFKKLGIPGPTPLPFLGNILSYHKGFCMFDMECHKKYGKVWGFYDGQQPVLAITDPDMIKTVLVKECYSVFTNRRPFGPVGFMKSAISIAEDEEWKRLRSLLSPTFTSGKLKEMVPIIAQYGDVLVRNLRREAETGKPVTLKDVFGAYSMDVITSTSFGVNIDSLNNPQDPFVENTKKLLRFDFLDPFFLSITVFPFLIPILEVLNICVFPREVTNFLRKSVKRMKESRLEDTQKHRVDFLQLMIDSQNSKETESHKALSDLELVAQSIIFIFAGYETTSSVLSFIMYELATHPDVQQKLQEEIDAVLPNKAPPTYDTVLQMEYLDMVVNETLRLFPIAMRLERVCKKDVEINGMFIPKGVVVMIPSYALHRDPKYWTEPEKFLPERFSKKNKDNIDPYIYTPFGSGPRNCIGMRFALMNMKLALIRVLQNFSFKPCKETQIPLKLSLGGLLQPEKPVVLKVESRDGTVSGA

With `CCOP(=S)(OCC)Oc1nc(Cl)c(Cl)cc1Cl` [CPF, Chlorpyrifos] the “Scaled Vmax(app)” value (CYP3A4; Pathway 1 (CPF to CPO)) was 910.77 µmol/h, the “Vmax (app)” value (CYP3A4; Pathway 1 (CPF to CPO)) was 17.78 pmol/min/pmolCYP and the “Scaled Vmax(app)” value (CYP3A4; Pathway 2 (CPF to TCPy)) was 1222.21 µmol/h. For the same compound, the “Vmax (app)” value (CYP3A4; Pathway 2 (CPF to TCPy)) was 23.86 pmol/min/pmolCYP, the Km (CYP3A4; human, recombinant CYP3A4 Supersomes, pH 7.4, Km(app), Pathway 1 (bioactivation of CPF to CPO)) was 29.8 µM and the Km (CYP3A4; human, recombinant CYP3A4 Supersomes, pH 7.4, Km(app), Pathway 2 (detoxification of CPF to TCPy)) was 18.1 µM. For the same compound, the Km (CYP3A4; read-out: Km(app), Pathway 1 (bioactivation of CPF to CPO)) was 29.8 µM, the Km (CYP1A2) was 0.38 µM and the “predicted BMDL10 lower than reported human model-derived BMDL10” value (RBC AChE; HLM-based biphasic PBK model versus USEPA [2014]) was 1.8 fold. The “predicted BMDL10 lower than reported human model-derived BMDL10” value (RBC AChE; Supersome-based PBK model versus USEPA [2014]) was 1.9 fold, the “BMDL10 of HLM-based approach with biphasic kinetics versus HLM-based approach without high affinity component” value (RBC AChE; average population) was “sixfold lower” and the “difference in BMDL10 between HLM-based (biphasic) and Supersome-based PBK model” value (RBC AChE; average population) was 1.04 fold. For the same compound, the “predicted BMDL10 higher than reported human model-derived BMDL10” value (RBC AChE; non-biphasic HLM-based PBK model versus USEPA [2014]) was 3.3 fold.
